# Assay results published in patent US20160229835A1, “NOVEL PYRIDYLOXYACETYL TETRAHYDROISOQUINOLINE COMPOUNDS USEFUL AS NAMPT INHIBITORS” (ELI LILLY AND COMPANY, priority 2013, published 2016).
# Test system: A2780 tumor model
# Assay: Efficacy in Xenograft Tumor Models, A2780
# Type: in vivo
# Settings: nude mice, 4-day-on and 3-day-off schedule for 17 days
# Description: The purpose of this assay is to measure reduction in tumor volume in response to test compound administration. A2780 and NCI-H1155 (NSCLC) cells are grown as described above for IVTI studies. Cells are harvested and injected subcutaneously onto the rear flank of nude mice. When tumors are established (7-21 days after implant), animals are randomized and grouped into control and test groups (7 animals/group). The test compound is formulated in 20% of CAPTISOL® and 25 mM of phosphate buffer, pH 2. Test compound and vehicle (20% of CAPTISOL® and 25 mM of phosphate buffer, pH 2 without compound) are administered by oral gavage. Tumor response is determined by tumor volume measurement (caliper) performed twice a week during the course of treatment and reported as percent of tumor volume of each treatment group divided by tumor volume of the vehicle control group. […] For example, Example 1 in H1155 tumor model, when dosed at 10 mg/kg (twice a day (BID) on a 4-day-on and 3-day-off schedule for 17 days, a T/C of 5.5 (P value<0.001 based on T-test) is achieved; when dosed at 20 mg/kg on the same schedule, a T/C of −81.1 (P value<0.001 based on T-test) is achieved. Example 2 in H1155 tumor model, when dosed at 8 mg/kg (twice a day (BID) on a 4-day-on and 3-day-off schedule for 17 days, a T/C of 5.2 (P value<0.001 based on T-test) is achieved; when dosed at 16 mg/kg on the same schedule, a T/C of −82.7 (P value<0.001 based on T-test) is achieved. Example 1 in A2780 tumor model, when dosed at 10 mg/kg (twice a day (BID) on a 4-day-on and 3-day-off schedule for 17 days, a T/C of 41.7 (P value<0.007 based on T-test) is achieved; when dosed at 20 mg/kg on the same schedule, a T/C of 2.4 (P value<0.001 based on T-test) is achieved.
compound,measurement,setting,value
"CC(C)(O)CS(=O)(=O)Nc1ccc2c(c1)CCN(C(=O)COc1cccnc1)C2 [Example 1, 2-Hydroxy-2-methyl-N-[2-[2-(3-pyridyloxy)acetyl]-3,4-dihydro-1H-isoquinolin-6-yl]propane-1-sulfonamide]",T/C (tumor volume of treatment group divided by vehicle control group),10 mg/kg BID oral,41.7%
same,T/C (tumor volume of treatment group divided by vehicle control group),20 mg/kg BID oral,2.4%
"COCCS(=O)(=O)Nc1ccc2c(c1)CCN(C(=O)COc1cccnc1)C2 [Example 2, 2-Methoxy-N-[2-[2-(3-pyridyloxy)acetyl]-3,4-dihydro-1H-isoquinolin-6-yl]ethanesulfonamide]",T/C (tumor volume of treatment group divided by vehicle control group),8 mg/kg BID oral,40.5%
same,T/C (tumor volume of treatment group divided by vehicle control group),16 mg/kg BID oral,1.5%
